The text below walks through data of US20120329738A1, “Water Soluble Drug-Solubilizer Powders and Their Uses” (priority 2009, published 2012).

SMILES strings stand for the structures. ≈ marks a conversion by molar mass, not a printed value. Where “and” joins values, the source holds several entries; their conditions need not be identical. Equal entries are not always repeated. Where two headings read alike, the source gives them in different places.

Data set [1] in a line: in vitro. The following applies: human, Caco-2. From the text:
Human epithelial colorectal adenocarcinoma cell line (Caco-2) was obtained from the American Type Culture Collection (ATCC), and cultured according to directions. Caco-2 cells grown in tissue culture flasks were trypsinized, suspended in medium, and the suspensions were applied to wells of a collagen-coated BioCoat Cell Environment in 24-well format (BD Biosciences) at 24,500 cells per well. The cells were allowed to grow and differentiate for three weeks, feeding at 2-day intervals. […] For Apical to Basolateral (A->B) permeability, the test agent (1 mg/mL)+probe substrate were added to the apical (A) side, test agent was added to the Basolateral (B) side, and amount of permeation was determined on the B side. For Basolateral to Apical (B>A) permeability, the test agent+probe substrate were added to the B side, test agent was added to the A side, and the amount of permeation of probe substrate was determined on the A side. Buffer alone, without test agent, was used as a negative control. […] Dosing solutions were prepared by dissolving the test agent in Transport buffer, then adding Lucifer yellow to a portion as indicated. CaCo-2 cells were incubated with these buffers for 2 h., and the receiver side buffer is removed for analysis by LC/MS/MS.
To verify the CaCo-2 cell monolayers were properly formed, aliquots of the cell buffers were analyzed by fluorescence to determine the transport of the impermeable dye Lucifer Yellow.
Where dQ/dt is the rate of permeation, C0 is the initial concentration of test agent, and A is the area of the monolayer.
From bidirectional permeability studies, the efflux ration (RE) is also calculated:
The P-gp inhibition data were calculated from the permeability results for the probe substrate as indicated. Ranitidine (low permeability) and warfarin (high permeability) are included as controls to ensure the proper performance of the test system.

The conditions of data set [2]: room temperature; The Merck Index, 1996; cited from earlier work.
Data set [3] can be described thus: Solubility in water without solubilizer. The data set is classed as physicochemical.
For data set [4], the target named is T1, P-gp (Homo sapiens, UniProt P08183).
T1 construct: endogenous in cells; host or cells: Caco-2 (ATCC), differentiated for three weeks on collagen-coated inserts
The data set can be described thus: P-gp inhibition in Caco-2 assay with digoxin probe substrate. The data set is classed as in vitro ADME. To be noted: Caco-2 cell monolayers, probe digoxin 5 µM, test conc 1 mg/mL (1.558 mM), 5 μM digoxin.
Description: Test agent powders were stored at −20° C. […] After separation on a C18 reverse phase HPLC column (Agilent, Waters, or equivalent) using an acetonitrile-water gradient system, peaks were analyzed by mass spectrometry (MS) using ESI ionization in MRM mode.
Human epithelial colorectal adenocarcinoma cell line (Caco-2) was obtained from the American Type Culture Collection (ATCC), and cultured according to directions. Caco-2 cells grown in tissue culture flasks were trypsinized, suspended in medium, and the suspensions were applied to wells of a collagen-coated BioCoat Cell Environment in 24-well format (BD Biosciences) at 24,500 cells per well. […] For Apical to Basolateral (A->B) permeability, the test agent (1 mg/mL)+probe substrate were added to the apical (A) side, test agent was added to the Basolateral (B) side, and amount of permeation was determined on the B side. For Basolateral to Apical (B>A) permeability, the test agent+probe substrate were added to the B side, test agent was added to the A side, and the amount of permeation of probe substrate was determined on the A side. […]
To verify the CaCo-2 cell monolayers were properly formed, aliquots of the cell buffers were analyzed by fluorescence to determine the transport of the impermeable dye Lucifer Yellow. […]
From bidirectional permeability studies, the efflux ration (RE) is also calculated: […]

The nature of data set [5]: Stability of curcumin-rubusoside water solutions (dilution with water, storage, pH). The data set is classed as physicochemical. How it is done:
This is important because the concentrated curcumin solution may be diluted in a biological system, e.g., in the stomach fluid.
Various concentrations of the solubilizer rubusoside were prepared in water: 0%, 1%, 2.5%, 5%, 10%, 20%, 30%, and 40% w/v. Curcumin (100 mg) was weighed and added into separate flasks, and an equal amount (10 ml) of a rubusoside solution was added to each flask. The prepared water solutions were vortexed briefly and then sonicated for 60 min at temperature of 50° C. These water solutions were subjected to a heat and pressure treatment composed of 121° C. and 1.1 to 1.2 atm for 60 min, and then placed in an incubator set at 25° C. for at least 24 hr. The solutions were then centrifuged at 4000 rpm for 10 min. The supernatant solution was passed through a 0.45 μm filter and analyzed for the concentration of either the water-insoluble compound or rubusoside by HPLC or LC/MS, as described above in Example 2. Quantification was done by comparing to a standard solution of a known amount in methanol. In the presence of 0%, 1%, 2.5%, 5%, 10%, 20%, 30%, and 40% w/v of rubusoside, the water solutions contained 0, 28, 267, 762, 1330, 2914, 4449, and 6004 μg/mL curcumin, respectively. […] When adjusted to about pH 7.0 by the addition of 1× phosphate buffered saline (PBS) powder, the solutions remained stable for at least 48 hours. Thus the reconstituted solution with saline would be sufficiently stable at pH 7.0 for use in a clinic setting.

Data set [6] deals with human pancreatic cancer cells (PANC-1). The following applies: literature value; read-out: IC50 for Panc-1 reported by Holcomb et al.; cited from earlier work.
The conditions of data set [7]: for Curcumin content of reconstituted solution: 100 mg in 10 mL water. The protocol: The water solutions containing the complexes of the water-insoluble compound and the solubilizer were dried to remove the water and to form a powder. […] Any method of water removal could be used, including freeze-drying, spray-drying, or oven drying. […] The amount of added water can be adjusted to achieve the desired concentration of the compound.
The 30% and 40% curcumin-rubusoside water solution (10 mL) were freeze-dried to powder. […] Part of this powder (100 mg) was re-constituted in 10 mL water. […] (FIG. 13) Similarly, the 30% curcumin-rebusoside solution was freeze-dried to powder, and 100 mg powder reconstituted with 10 mL water.
The powder was reconstituted using 1 ml, 0.5 ml, 0.25 ml or 0.1 ml water, followed by 60 min sonication and a brief vortex. […] Paclitaxel concentrations were determined using a standard paclitaxel calibration curve with paclitaxel standard in methanol. […] (FIG. 15).

The subject of data set [8] is human pancreatic cancer cells (PANC-1). Nature of the data set: Growth inhibition of PANC-1 cells by re-constituted curcumin water solution. The data set is classed as cell-based. How it is done:
The pH-adjusted water solution was then co-cultured with human pancreatic cancer cells (PANC-1) for 72 hours in a standard cell culture medium. […] All culture materials were purchased from Invitrogen Corporation (Carlsbad, Calif.). […] (FIG. 14).

Data set [9] is described as follows: Concentration of curcumin dissolved in rebaudioside A water solution, HPLC. The format is physicochemical. To be noted: 5% w/v rebaudioside A. From the text: A new method (the “Sonication—autoclave method”) was used to solublize most of the compounds, a method different from that reported in International Patent Application No. PCT/US2009/040324 (the “Standard Shake Flask method”). The main difference was the use of higher temperatures and elevated atmospheric pressures. The steps of the new enhanced process are as follows. A water-insoluble compound was weighed into multiple flasks, divided into two groups—a control group and an experimental group. Each experimental flask received a known amount of the solubilizing agent, e.g. rubusoside, being tested. The control flasks contained only the water-insoluble compound. The same volume, 10 mL, unless otherwise indicated, of deionized and distilled water was added to each flask. Alternatively, water solutions containing a known percentage of solubilizer (e.g., 5% or 10% w/v) were prepared. The solubilizer-water solutions were added directly to the experimental flasks containing the water-insoluble compound. In either case, the flasks were then vortexed briefly and sonicated for 60 min at 50° C. Sonication is a process of applying sound (usually ultrasound) energy to agitate particles in a sample. Using this energy, inter-molecular interactions are facilitated. After sonication, the solution was then subjected to heat and pressure. […] The supernatant solution was passed through a 0.45 μm filter and analyzed for the concentration of the water-insoluble compound or solubilizer by HPLC or LC/MS, as described below.
To test if the enhanced process also applies to another solubilizing agent, rebuadioside A was used. […] The water solutions were filtered by 0.45 μM filters and analyzed on HPLC. Quantification was done by comparing to a standard solution of a known amount of curcumin in methanol. […] Curcumin concentration was determined using a standard curcumin solution of 196.8 μg/mL. […]

Data set [10] is described as follows: physchem. The following applies: 25 °C, aqueous with cosolvent or surfactant or cyclodextrin, thermodynamic from solid.

T1 sequence (P08183 whole entry): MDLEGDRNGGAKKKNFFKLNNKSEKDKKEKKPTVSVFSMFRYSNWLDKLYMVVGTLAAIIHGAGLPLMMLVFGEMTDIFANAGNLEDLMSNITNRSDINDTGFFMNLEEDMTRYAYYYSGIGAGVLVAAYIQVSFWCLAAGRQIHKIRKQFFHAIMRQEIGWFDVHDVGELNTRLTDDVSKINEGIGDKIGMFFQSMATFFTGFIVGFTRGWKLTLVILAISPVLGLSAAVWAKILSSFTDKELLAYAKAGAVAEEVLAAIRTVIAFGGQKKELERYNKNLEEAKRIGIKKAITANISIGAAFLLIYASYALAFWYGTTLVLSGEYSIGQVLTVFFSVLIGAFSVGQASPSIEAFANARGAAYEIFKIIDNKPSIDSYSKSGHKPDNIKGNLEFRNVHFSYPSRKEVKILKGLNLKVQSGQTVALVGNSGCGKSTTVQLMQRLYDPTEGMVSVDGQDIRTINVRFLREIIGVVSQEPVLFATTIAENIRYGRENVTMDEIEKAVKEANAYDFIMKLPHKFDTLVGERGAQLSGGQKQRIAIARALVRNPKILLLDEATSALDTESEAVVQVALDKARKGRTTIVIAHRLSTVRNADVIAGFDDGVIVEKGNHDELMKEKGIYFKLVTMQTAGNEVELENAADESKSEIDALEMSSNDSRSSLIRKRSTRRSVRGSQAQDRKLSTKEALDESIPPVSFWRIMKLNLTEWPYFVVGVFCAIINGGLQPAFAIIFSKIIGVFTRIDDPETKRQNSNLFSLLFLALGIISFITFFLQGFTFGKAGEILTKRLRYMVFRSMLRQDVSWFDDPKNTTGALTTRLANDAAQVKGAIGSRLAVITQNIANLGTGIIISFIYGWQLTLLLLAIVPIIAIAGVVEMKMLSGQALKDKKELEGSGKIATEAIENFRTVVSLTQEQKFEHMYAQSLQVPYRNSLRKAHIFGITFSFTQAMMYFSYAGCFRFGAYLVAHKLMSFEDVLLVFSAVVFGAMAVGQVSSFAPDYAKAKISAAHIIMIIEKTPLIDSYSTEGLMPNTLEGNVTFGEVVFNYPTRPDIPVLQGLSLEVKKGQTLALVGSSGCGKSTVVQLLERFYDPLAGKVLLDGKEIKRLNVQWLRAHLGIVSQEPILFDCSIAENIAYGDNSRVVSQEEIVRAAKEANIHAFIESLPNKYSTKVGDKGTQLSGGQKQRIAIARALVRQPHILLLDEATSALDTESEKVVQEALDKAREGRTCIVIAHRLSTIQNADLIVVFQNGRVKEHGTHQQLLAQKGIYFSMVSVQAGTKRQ

Usually Papp A→B stands for the apparent permeability from the apical to the basolateral side of a cell layer. A high value points to ready permeation. A word on the Papp B→A: it is the apparent permeability from the basolateral to the apical side of a cell layer. The term efflux ratio denotes a quotient of directional permeabilities that is used to spot active efflux. As for `C[C@H]1O[C@@H](O[C@H]2[C@@H](O)C[C@H](O[C@H]3[C@@H](O)C[C@H](O[C@H]4CC[C@@]5(C)[C@H](CC[C@@H]6[C@@H]5C[C@@H](O)[C@]5(C)[C@@H](C7=CC(=O)OC7)CC[C@]65O)C4)O[C@@H]3C)O[C@@H]2C)C[C@H](O)[C@@H]1O` [Digoxin, digoxin], in data set [1], the Papp A→B at 2 h, 5 μM worked out at 1.4 ×10⁻⁶ cm/s; the Papp B→A at 2 h, 5 μM is 18.7 ×10⁻⁶ cm/s; the efflux ratio at 2 h, 5 μM was 13.7.

For `O=C(O)c1cc(O)c(O)c(O)c1` [Gallic acid], the Solubility in water result in [2] was “about 11 mg/ml”.

`CNC(=C[N+](=O)[O-])NCCSCc1ccc(CN(C)C)o1` [Ranitidine] yielded an apical-to-basolateral permeability (Papp A→B) at 2 h, 10 μM in data set [1] of 1.7 ×10⁻⁶ cm/s.

As usually defined, the solubility is the concentration that dissolves in the medium under given conditions. A higher solubility goes with much dissolved substance. The inhibition is the drop in the measured response relative to a control, in per cent. Low readings indicate a response near the control, high ones a response far below the control. In the case of `C=C1C[C@@]23CC[C@H]4[C@@](C)(CCC[C@@]4(C)C(=O)O[C@@H]4O[C@H](CO)[C@@H](O)[C@H](O)[C@H]4O)[C@@H]2CC[C@]1(O[C@@H]1O[C@H](CO)[C@@H](O)[C@H](O)[C@H]1O)C3` [Rubusoside, b-D-glucosyl ester of 13-O-b-D-glucosyl-steviol], the solubility was ~400 mg/mL (≈ 622 mM) in [3] (25° C.) and ~800 mg/mL (≈ 1240 mM) in data set [3] (37° C.). Also, the inhibition at 2 h, 1 mg/mL in [4] worked out at 59%.

Consider `CC(=O)CC(c1ccccc1)c1c(O)c2ccccc2oc1=O` (stereo not shown) [Warfarin, warfarin], for which, in [1], the Papp A→B at 2 h, 10 μM was 33.5 ×10⁻⁶ cm/s.

Consider `CC[C@@]1(O)C(=O)OCc2c1cc1n(c2=O)Cc2cc3ccccc3nc2-1` [camptothecin], for which the “Fold increase, enhanced vs standard process” value (10% w/v rubusoside) was “more than 3 fold”. Further, the “Concentration in water solution” value amounted to 247 µg/mL (10% w/v rubusoside, enhanced process (Sonication-Autoclave)) and 80 µg/mL (10% w/v rubusoside, standard process (Shake-flask)).

What is called IC50 is the concentration that gives 50% inhibition. In the case of `COc1cc(/C=C/C(=O)CC(=O)/C=C/c2ccc(O)c(OC)c2)ccc1O` [curcumin], the “Curcumin in water solution” value came to 6004 µg/mL in [5] (Stock, 40.0% w/v rubusoside); 2985 µg/mL in data set [5] (stock diluted 1:1 with water, 20.0% rubusoside); 1489 µg/mL in data set [5] (stock diluted 1:3 with water, 10.0% rubusoside); 742 µg/mL in [5] (stock diluted 1:7 with water, 5.0% rubusoside); 358 µg/mL in data set [5] (stock diluted 1:15 with water, […] rubusoside); 135 µg/mL in [5] (stock diluted 1:39 with water, 1.0% rubusoside). Besides, the “Curcumin in water solution” value in data set [9] (enhanced process) turned out to be 302 µg/mL; in data set [9] (standard process), 156 µg/mL. For the same molecule, the IC50 in [6] was 17 µM; in data set [8] (Homo sapiens, PANC-1, re-constituted curcumin-rubusoside solution, pH 7.2, 72 hours) it was ~5.5 µg/mL and ~14.9 µM. Besides, the “Reconstitution of dried powder” value in data set [7] was “successfully reconstituted”. The “Curcumin content of reconstituted solution” value in [7] (powder from 30% rubusoside solution) is recorded as 1.87 % w/w; in data set [7] (powder from 40% rubusoside solution), 2.03 % w/w. Also, the Curcumin concentration (24 h) worked out at 0.34 mg/mL. Further, the Growth inhibition entry is listed as “strong inhibition” in [8] (6.25 μg/mL curcumin, 72 hours) and “no inhibitory effect” in [8] (curcumin below 3.13 μg/mL, 72 hours). For the same molecule, the “Curcumin concentration giving maximum growth inhibition” value in [8] (72 hours) was ≥ 12.5 µg/mL. Besides, the “Fold increase, enhanced vs standard process” value in data set [9] was ~2 fold.

On to `CC(=O)[C@H]1CC[C@H]2[C@@H]3CCC4=CC(=O)CC[C@]4(C)[C@H]3CC[C@]12C` [progesterone], for which the “Reconstitution of dried powder” value in data set [7] is listed as “successfully reconstituted”.

Regarding `Oc1ccc(C=Cc2cc(O)cc(O)c2)cc1` [resveratrol], the “Reconstitution of dried powder” value in [7] is listed as “successfully reconstituted”.

As to `C=C1CC[C@H](O)C/C1=C/C=C1\CCC[C@]2(C)[C@@H]([C@H](C)CCCC(C)C)CC[C@@H]12` [vitamin D3, cholecalciferol], the concentration in solution in data set [10] (solubility) came to 4.5 mg/mL (≈ 11.7 mM). In addition, the “Concentration in re-composed single water solution” value (mixed vitamins A, D, E, K in 10% rubusoside) was determined as 4.7 µg/mL.
